Read-outs that look alike come from different tables or passages of the source.
Key:
Galectin-1 [1] = target: T1, Galectin-1 (Homo sapiens (Human), UniProt P09382); test: Fluorescence anisotropy assay, compound as inhibitor of galectin / fluorescein tagged saccharide probe interaction; format: binding
Method: (§1) The affinity of Example 1-32 for galectins were determined by a fluorescence anisotropy assay where the compound was used as an inhibitor of the interaction between galectin and a fluorescein tagged saccharide probe as described Sörme, P., Kahl-Knutsson, B., Huflejt, M., Nilsson, U. J., and Leffler H. (2004) Fluorescence polarization as an analytical tool to evaluate galectin-ligand interactions. Anal. Biochem. 334: 36-47, (Sörme et al., 2004) and Monovalent interactions of Galectin-1 By Salomonsson, Emma; Larumbe, Amaia; Tejler, Johan; Tullberg, Erik; Rydberg, Hanna; Sundin, Anders; Khabut, Areej; Frejd, Torbjorn; Lobsanov, Yuri D.; Rini, James M.; et al, From Biochemistry (2010), 49(44), 9518-9532, (Salonmonsson et al., 2010).
Target sequence in this assay (P09382 whole entry): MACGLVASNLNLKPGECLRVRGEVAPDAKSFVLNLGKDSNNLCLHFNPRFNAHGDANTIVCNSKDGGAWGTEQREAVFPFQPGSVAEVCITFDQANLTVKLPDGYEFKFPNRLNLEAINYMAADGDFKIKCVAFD

Galectin-3 = Galectin-3 (Homo sapiens (Human), UniProt P17931); test: as above; format: binding
Method: as §1

[2] = Permeability (Papp) Caco-2 A>B; format: in vitro ADME; details: human, apical (A) to basolateral (B) direction
Method: (§2) The permeability (Papp) (Caco-2 A>B) was determined from the apical (A) to the basolateral (B) direction in adenocarcinoma cells from human colon. The human hepatic stability (CLint) was determined in human hepatocytes.

[3] = Human hepatic stability (CLint) in human hepatocytes; format: in vitro ADME; details: * = no degradation observed under the assay conditions
Method: as §2

Galectin-1 [4] = target: T1, Galectin-1; details: read-out: affinity to Galectin-1, cited from earlier work
Target sequence in this assay (P09382 whole entry, species assumed): as the sequence (P09382 whole entry) above

galectins = details: cited from earlier work

Galectin-3, sequence (P17931 whole entry): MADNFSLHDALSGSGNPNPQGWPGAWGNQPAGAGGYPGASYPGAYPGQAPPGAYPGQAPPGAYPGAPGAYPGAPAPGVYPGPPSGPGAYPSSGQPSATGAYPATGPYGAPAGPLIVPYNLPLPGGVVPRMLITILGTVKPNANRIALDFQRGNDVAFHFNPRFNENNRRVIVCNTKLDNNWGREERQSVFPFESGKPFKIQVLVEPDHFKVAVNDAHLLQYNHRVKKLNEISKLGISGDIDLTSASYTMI

Row | CLint scaled [3] [mL/min/kg] | Compound | Kd (Galectin-1 [1]) [µM] | Kd (Galectin-3) [µM] | Papp [2] [×10⁻⁶ cm/s] | also measured
1 | 11.3 | OC[C@H]1O[C@H](Sc2cnc(C(F)(F)F)c(Br)c2)[C@H](O)[C@@H](n2cc(-c3ccsc3)nn2)[C@H]1O [Example 4, 5-Bromo-6-trifluoromethyl-pyridin-3-yl 3-deoxy-3-[4-(3-thiophenyl)-1H-1,2,3-triazol-1-yl]-1-thio-α-D-galactopyranoside] | 0.38 | 1.2 | 2.5 | 
2 |  | OCC1O[C@@H](S[C@@H]2O[C@H](CO)C(O)C(n3cc(-c4ccsc4)nn3)[C@H]2O)C(O)[C@@H](n2cc(-c3ccsc3)nn2)[C@H]1O (some centres unmarked) |  |  |  | Kd (Galectin-1 [4]; T. Delaine, 2016, ChemBioChem): < 0.01 µM
3 |  | OC[C@H]1O[C@@H](O[C@H]2[C@H](O)[C@@H](O)C(O)O[C@@H]2CO)[C@H](O)[C@@H](O)[C@H]1O (some centres unmarked) [Lactose] |  |  |  | Kd (galectins; reviewed by Leffler, 2001, Leffler et al., 2004, read-out: Kd for all galectins): 100 to 1000 µM
4 |  | O=C[C@H](O)[C@@H](O)[C@@H](O)[C@H](O)CO [Galactose, D-galactose] |  |  |  | affinity relative to lactose (galectins; compared with lactose): 50-100 times lower; Kd (Galectin-1 [4]; Tejler et. al. 2009): 10000 µM
5 |  | OC[C@H]1O[C@H](Sc2cc(Cl)c(F)c(Cl)c2)[C@H](O)[C@@H](n2cc(-c3cscn3)nn2)[C@H]1O [Example 14, 3,5-Dichloro-4-fluoro-phenyl 3-deoxy-3-[4-(4-thiazolyl)-1H-1,2,3-triazol-1-yl]-1-thio-α-D-galactopyranoside] | 0.23 | 6.2 | 8.8 | 
6 | 0.38 | OCC1O[C@H](Sc2cc(Cl)c(F)c(Cl)c2)C(O)[C@@H](n2cc(-c3nccs3)nn2)[C@H]1O (some centres unmarked) [Example 5] |  |  | 10.5 | 

Row | Compound | CLint scaled [3] [mL/min/kg] | Kd (Galectin-1 [1]) [µM] | Kd (Galectin-3) [µM] | Papp [2] [×10⁻⁶ cm/s] | also measured
7 | OC[C@H]1O[C@H](Sc2ccc(Cl)c(Cl)c2)[C@H](O)[C@@H](n2cc(-c3ccsc3)nn2)[C@H]1O [Example 1, 3,4-Dichlorophenyl 3-deoxy-3-[4-(3-thiophenyl)-1H-1,2,3-triazol-1-yl]-1-thio-α-D-galactopyranoside] | 12.1 | 0.14 | 2.6 | 10.1 | 

From patent US10988502B2, “Alpha-D-galactoside inhibitors of galectins” (GALECTO BIOTECH AB, priority 2016, dated 2021)
